Data reported in paper PMC10949600, “Iso-mukaadial acetate and ursolic acid acetate bind to Plasmodium Falciparum heat shock protein 70: towards targeting parasite protein folding pathway” (BMC Chemistry, 2024).
pKd: −log10 of the molar value. Where two headings read alike, the source gives them in different places.

Molecular target: T1, PfHsp70-1 (Plasmodium falciparum, UniProt P11144)
T1 construct: recombinant PfHsp70-1 (pQE30/PfHsp70-1)
Assay: SPR, PfHsp70-1 immobilized on CMD 3-D gold chip by amine coupling
Type: binding
Description: SPR, PfHsp70-1 immobilized on CMD 3-D gold chip by amine coupling on PfHsp70-1 | PfHsp70 binds to either of the two compounds within the micromolar range of affinity

T1 sequence (P11144 whole entry): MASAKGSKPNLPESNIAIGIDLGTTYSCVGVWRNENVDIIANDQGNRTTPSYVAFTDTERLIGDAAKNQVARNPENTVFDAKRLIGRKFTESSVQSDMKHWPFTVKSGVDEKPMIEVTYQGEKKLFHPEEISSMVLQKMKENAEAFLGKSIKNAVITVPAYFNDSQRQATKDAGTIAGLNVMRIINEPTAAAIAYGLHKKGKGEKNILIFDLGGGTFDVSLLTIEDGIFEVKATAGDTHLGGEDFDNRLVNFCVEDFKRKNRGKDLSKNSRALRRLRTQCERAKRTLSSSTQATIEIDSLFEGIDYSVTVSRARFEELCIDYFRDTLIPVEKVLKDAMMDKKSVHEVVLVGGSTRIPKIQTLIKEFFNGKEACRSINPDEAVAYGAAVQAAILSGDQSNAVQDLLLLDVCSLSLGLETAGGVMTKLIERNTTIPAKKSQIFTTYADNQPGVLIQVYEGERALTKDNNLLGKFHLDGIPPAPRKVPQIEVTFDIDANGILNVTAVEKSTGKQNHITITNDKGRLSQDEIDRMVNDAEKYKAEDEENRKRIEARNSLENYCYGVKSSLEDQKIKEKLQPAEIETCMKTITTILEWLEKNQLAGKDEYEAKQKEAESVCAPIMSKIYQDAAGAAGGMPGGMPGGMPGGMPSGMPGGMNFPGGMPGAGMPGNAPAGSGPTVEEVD

## CC(=O)O[C@H]1CC[C@]2(C)[C@H]3CC=C4[C@@H]5[C@@H](C)[C@H](C)CC[C@]5(C(=O)O)CC[C@@]4(C)[C@]3(C)CC[C@H]2C1(C)C [UAA, ursolic acid acetate]
  pKd: 5.39

## iso-mukaadial acetate [IMA]
read-out: KD
  pKd: 5.00
